The numbers were not newly measured in US10786520B2, “Aminoglycoside derivatives and uses thereof in treating genetic disorders” (Eloxx Pharmaceuticals Ltd., priority 2015, dated 2020), which cites them from elsewhere.

Structures are written as SMILES.

For this series, the system named is human fibroblast cells.

`CN[C@@H]1[C@@H](O)[C@@H](O[C@@H]2[C@@H](O)[C@H](O[C@H]3O[C@H]([C@@H](C)O)[C@@H](O)[C@H](O)[C@H]3N)[C@@H](N)C[C@H]2N)OC[C@]1(C)O` [Compound G-418, G-418]: the “LD50 against human fibroblast cells” value was 0.04 mg/mL.
